Consider 31 compounds from the Kinase Knowledgebase extract (Sharma et al. 2016).

By IC50 is commonly meant the midpoint of a concentration-inhibition curve. By inhibition is commonly meant the percentage by which the read-out fell short of the control. A lower inhibition goes with a weak effect.

For the first test, the target named is CDK2 (human) (UniProt P24941). The experiment in a line: Cell-Based Assay. To be noted: sw480.
For the compound `COc1cc[nH]c1/C=C1\C(=O)Nc2ccc3[nH]c(C)nc3c21`, the IC50 is < 1 µM.

A further test concerns the target CDK2 (UniProt P24941). The experiment in a line: Enzyme Assay.
Details: not given
Consider `Cc1nc[nH]c1/C=C1\C(=O)Nc2ccc([N+](=O)[O-])c(N=[N+]=[N-])c21`, for which the IC50 is < 3.5 µM.

As to `Cc1nc[nH]c1/C=C1\C(=O)Nc2ccc([N+](=O)[O-])c(N)c21`, the IC50 is < 3.5 µM.

With `O=C1Nc2ccc3[nH]c(-c4ccccc4)nc3c2/C1=C/c1ccc[nH]1`, the IC50 is < 3.5 µM.

`COCCCNc1nc2c3c(ccc2[nH]1)NC(=O)/C3=C\c1[nH]ccc1OC`: the IC50 is < 3.5 µM.

For `Cc1nc[nH]c1/C=C1\C(=O)Nc2ccc([N+](=O)[O-])c(F)c21`, the IC50 is < 3.5 µM.

Turning to `COc1cc[nH]c1/C=C1\C(=O)Nc2ccc3[nH]c(CCc4ccc(O)cc4)nc3c21`, the IC50 is < 3.5 µM.

For the compound `COc1cc[nH]c1/C=C1\C(=O)Nc2ccc3[nH]c(-c4ccccc4)nc3c21`, the IC50 is < 3.5 µM.

For the compound `COc1cc[nH]c1/C=C1\C(=O)Nc2ccc3[nH]c(C(O)c4ccccc4)nc3c21` (configuration not stated), the IC50 is < 3.5 µM.

In the case of `COc1ccc(Cc2nc3c4c(ccc3[nH]2)NC(=O)/C4=C\c2[nH]ccc2OC)cc1`, the IC50 was < 3.5 µM.

Take `COc1cc[nH]c1/C=C1\C(=O)Nc2ccc3nc[nH]c3c21`: the IC50 is < 3.5 µM.

In the case of `COc1cc[nH]c1/C=C1\C(=O)Nc2ccc3[nH]c(NC(C)c4ccccc4)nc3c21` (configuration not stated), the IC50 was < 3.5 µM.

Consider `COc1cc[nH]c1/C=C1\C(=O)Nc2ccc3[nH]c(Nc4ccc(N(C)C)cc4)nc3c21`, for which the IC50 is < 3.5 µM.

Turning to `COc1cc[nH]c1/C=C1\C(=O)Nc2ccc3[nH]c(C)nc3c21`, the IC50 was < 3.5 µM.

Turning to `COc1cc[nH]c1/C=C1\C(=O)Nc2ccc3[nH]c(NCC4CCCO4)nc3c21` (configuration not stated), the IC50 is < 3.5 µM.

For the compound `COc1cc[nH]c1/C=C1\C(=O)Nc2ccc3[nH]c(-c4ccc(C(=O)O)cc4)nc3c21`, the IC50 is < 3.5 µM.

For the compound `Cc1nc[nH]c1/C=C1\C(=O)Nc2ccc(N)c(N)c21`, the IC50 is < 3.5 µM.

Turning to `COc1cc[nH]c1/C=C1\C(=O)Nc2ccc3[nH]c(-c4ccccc4O)nc3c21`, the IC50 was < 3.5 µM.

As for `Cc1nc[nH]c1/C=C1\C(=O)Nc2ccc3[nH]cnc3c21`, the IC50 is < 3.5 µM.

`COc1cc[nH]c1/C=C1\C(=O)Nc2ccc3[nH]c(CCCc4ccccc4)nc3c21`: the IC50 was < 3.5 µM.

Staying with this test, now noted: concentration not given here.
Take `COc1cc[nH]c1/C=C1\C(=O)Nc2ccc3[nH]c(NCCCCc4ccccc4)nc3c21`: the inhibition was < 50%.

`COc1cc[nH]c1/C=C1\C(=O)Nc2ccc3[nH]c(Nc4cccc(C(C)=O)c4)nc3c21`: the inhibition is < 50%.

In the case of `COc1ccccc1Nc1nc2c3c(ccc2[nH]1)NC(=O)/C3=C\c1[nH]ccc1OC`, the inhibition was < 50%.

In the case of `COc1cc[nH]c1/C=C1\C(=O)Nc2ccc3nc(NCCCc4ccccc4)[nH]c3c21`, the inhibition was < 50%.

Regarding `COc1ccc(Nc2nc3c4c(ccc3[nH]2)NC(=O)/C4=C\c2[nH]ccc2OC)cc1`, the inhibition is < 50%.

Regarding `COc1cc[nH]c1/C=C1\C(=O)Nc2ccc3nc(NCc4cccc5ccccc45)[nH]c3c21`, the inhibition is < 50%.

Regarding `COc1ccc(CCNc2nc3c4c(ccc3[nH]2)NC(=O)/C4=C\c2[nH]ccc2OC)cc1OC`, the inhibition is < 50%.

`COc1cc[nH]c1/C=C1\C(=O)Nc2ccc3nc(NCc4ccc5c(c4)OCO5)[nH]c3c21`: the inhibition was < 50%.

Regarding `COc1ccc(Nc2nc3c4c(ccc3[nH]2)NC(=O)/C4=C\c2[nH]ccc2OC)cc1OC`, the inhibition is < 50%.

In the case of `CCOC(=O)c1ccc(Nc2nc3c4c(ccc3[nH]2)NC(=O)/C4=C\c2[nH]ccc2OC)cc1`, the inhibition is < 50%.

As for `COC(=O)c1ccc(Nc2nc3c4c(ccc3[nH]2)NC(=O)/C4=C\c2[nH]ccc2OC)cc1`, the inhibition was < 50%.

As for `COc1cc[nH]c1/C=C1\C(=O)Nc2ccc3nc(Nc4ccc5c(c4)CCC5)[nH]c3c21`, the inhibition is < 50%.
